Values joined by “and” are separate entries in the source; they are usually repeats but may differ in a detail not shown here. Equal entries are not always repeated.
Experiment: Pharmacokinetics study after separate oral administration in rats (HPLC-MS of plasma)
Format: in vivo, Sprague-Dawley rats
Settings: for Plasma concentrations: individual rats NO. 1-5; for AUC(0-t) / Cmax / MRT(0-t) / Tmax / t1/2z / CLz/F: labelled substance = analyte, individual rats No1-No5
Experimental: A total of 15 SPF Sprague-Dawley rats (SD, male, 190–210 g) were provided by Sino-British Sippr/BK Lab Animal Company Ltd. (Shanghai, China). The rats were kept in standard conditions (22–26 °C; 40–60% relative humidity; 12 h light/dark cycle). Throughout the rearing period, the animals had access to food and water ad libitum. Animal experiments were conducted in accordance with the standard ethical guidelines of the Laboratory Animal Management Committee of Jiangsu Province (SYXK (SU) 2016-0011).
Following 1 week of adaptation, the rats were fasted for about 12 h before dosing, with free access to water. […] After administration of the first dose, blood samples were taken from the retro-orbital vein at 0, 5, 15, 30, 60, 90, 120, 180, 240, 360, 480, and 1,440 min and collected in heparinized tubes. The samples were centrifuged at 3,500 rpm for 10 min at 4 °C and the plasma was stored at −80 °C until analysis.
An Agilent 1,200 series HPLC system (Agilent Technologies, Waldbronn, Germany) equipped with a quaternary pump on-line degasser, auto-sampler and column oven, and an SL G1946D quadruple mass spectrometer (Agilent Technologies, Santa Clara, CA, USA) equipped with an electrospray ionization (ESI) source, were used for separation and detection. Data were acquired and analyzed using Agilent ChemStation Software Version A.01.00 (Agilent Technologies, Santa Clara, CA, USA).
The separation was carried out with an Amethyst C18-H column (150 × 4.6 mm, 5 μm, Sepax Technologies, Newark, DE, USA) with a guard column SB-C18 (10 × 4.6 mm, 5 μm, Phenomenex Technologies, Torrance, USA) at a constant temperature of 25 °C.
The mass spectra were acquired using ESI interfaced to a single quadrupole mass spectrometer. The ionization conditions were as follows: drying gas (N2) flow rate of 11 L/min, drying gas temperature of 350 °C, nebulizing gas (N2) pressure of 35 psi, capillary voltage of 3,500 V, quad temperature of 100 °C, and fragment voltage of 110 V. A series of m/z were monitored using a timed program according to the retention times and characteristic ions for the corresponding HPLC-MS peak obtained by scanning from m/z 100–1,000 in the standard sample.
Briefly, an aliquot of plasma sample (100 μL) was spiked with 5% formic acid (10 μL) in centrifuge tube. Subsequently, hydrochloric acid (2 mol/L, 10 μL) and IS solution (960.00 ng/mL, 20 μL) were added. Then ethyl acetate/n-butyl alcohol (1:1 v/v; 1,000 μL) was used to extract the components. The samples were then homogenized by vortex mixing and centrifuged for 10 min at 14,000 rpm. After centrifugation, 800 μL of supernatant was transferred to another centrifuge tube and the sample was evaporated to dryness. The residues were dissolved in 100 μL of methanol and centrifuged for 10 min at 12,000 rpm. 50 μL of the supernatant was transferred to the vial and an aliquot of 5 μL was injected into the HPLC-MS system for analysis.
DAS 2.0 (Chinese Pharmacological Association, Shanghai, China) was used to calculate the pharmacokinetic parameters using the non-compartment model, including the area under curve (AUC), mean residence time (MRT), half-life ( t1/2z), clearance rate (CL), maximum plasma concentration (Cmax), and time (Tmax). All results are expressed as mean ± standard deviation (SD). One way analysis of variance followed by […] was used for comparison of different groups using Graph pad prism 5 software. A p-value of <0.05 was considered statistically significant.

[1] = IQ group (oral IQ 50 mg/kg), rat plasma
[2] = QG group (oral QG 50 mg/kg), rat plasma
[3] = Qr group (oral Qr 50 mg/kg), rat plasma

For `O=C(O)[C@H]1O[C@@H](Oc2c(-c3ccc(O)c(O)c3)oc3cc(O)cc(O)c3c2=O)[C@H](O)[C@@H](O)[C@@H]1O` [QG, Quercetin-3-O-β-D-glucuronide], the Plasma concentrations (IQ group (oral IQ 50 mg/kg), 5 min) was 0.7646 µg/mL and 1.0569 µg/mL, the Plasma concentrations (IQ group (oral IQ 50 mg/kg), 120 min) was 0.6158 µg/mL and 0.5082 µg/mL and 0.7807 µg/mL and 0.6334 µg/mL and the Plasma concentrations (IQ group (oral IQ 50 mg/kg), 180 min) was 0.8736 µg/mL and 0.5334 µg/mL and 0.3826 µg/mL and 0.3965 µg/mL and 0.7922 µg/mL. For the same molecule, the Plasma concentrations (IQ group (oral IQ 50 mg/kg), 240 min) was 0.2228 µg/mL and 0.5709 µg/mL and 0.5714 µg/mL and 0.4349 µg/mL and 0.8190 µg/mL, the Plasma concentrations (IQ group (oral IQ 50 mg/kg), 360 min) was 0.1194 µg/mL and 0.8107 µg/mL and 0.4137 µg/mL and 0.6925 µg/mL and 0.8505 µg/mL and the Plasma concentrations (IQ group (oral IQ 50 mg/kg), 480 min) was 0.4225 µg/mL and 0.4165 µg/mL and 0.1673 µg/mL and 0.2461 µg/mL and 0.7377 µg/mL. The Plasma concentrations (IQ group (oral IQ 50 mg/kg), 1440 min) was 0.0935 µg/mL and 0.0847 µg/mL and 0.0809 µg/mL and 0.0651 µg/mL and 0.3494 µg/mL, the “AUC(0-t)” value [1] was 597.432 mg·min/L and 994.801 mg·min/L and 564.315 mg·min/L and 660.84 mg·min/L and the Cmax [1] was 4534 ng/mL and 5953 ng/mL and 2825 ng/mL and 2800 ng/mL and 3414 ng/mL. The “MRT(0-t)” value [1] was 4.64393 h and 8.49298 h and 6.06248 h and 5.82378 h, the Tmax [1] was 30 min and the t1/2z [1] was 7.29975 h and 8.1253 h and 14.3264 h and 6.69975 h and 7.17603 h. For the same molecule, the “Detection in rat plasma” value (IQ group: oral IQ 50 mg/kg) was “measured”, the Plasma concentrations (QG group (oral QG 50 mg/kg), 5 min) was 0.0814 µg/mL and 0.1791 µg/mL and 0.1562 µg/mL and 0.4345 µg/mL and 0.2229 µg/mL and the Plasma concentrations (QG group (oral QG 50 mg/kg), 120 min) was 0.0799 µg/mL and 0.2388 µg/mL and 0.5950 µg/mL and 0.1120 µg/mL and 0.2189 µg/mL. For the same molecule, the Plasma concentrations (QG group (oral QG 50 mg/kg), 180 min) was 0.7950 µg/mL and 1.4327 µg/mL and 2.4032 µg/mL and 0.2061 µg/mL and 1.3248 µg/mL, the Plasma concentrations (QG group (oral QG 50 mg/kg), 240 min) was 1.3178 µg/mL and 2.6305 µg/mL and 2.4984 µg/mL and 0.6490 µg/mL and 1.6470 µg/mL and the Plasma concentrations (QG group (oral QG 50 mg/kg), 360 min) was 0.1076 µg/mL and 2.2429 µg/mL and 3.2289 µg/mL and 1.3605 µg/mL and 1.5082 µg/mL. For the same molecule, the Plasma concentrations (QG group (oral QG 50 mg/kg), 480 min) was 0.0874 µg/mL and 0.7211 µg/mL and 1.7586 µg/mL and 0.4951 µg/mL and 0.6594 µg/mL, the Plasma concentrations (QG group (oral QG 50 mg/kg), 1440 min) was 0.0575 µg/mL and 0.2816 µg/mL and 0.1651 µg/mL and 0.1404 µg/mL and 0.1134 µg/mL and the “AUC(0-t)” value [2] was 268.635 mg·min/L and 1176.18 mg·min/L and 1861.7 mg·min/L and 635.402 mg·min/L and 871.691 mg·min/L. The CLz/F [2] was 0.17 L/min/kg and 0.038 L/min/kg and 0.026 L/min/kg and 0.067 L/min/kg and 0.054 L/min/kg, the Cmax [2] was 1318 ng/mL and 2631 ng/mL and 3229 ng/mL and 1365 ng/mL and 1647 ng/mL and the “MRT(0-t)” value [2] was 7.8607 h and 7.11965 h and 7.95713 h and 7.028 h. For the same molecule, the t1/2z [2] was 6.12582 h and 5.27942 h and 8.9772 h and 6.00847 h, the “Detection in rat plasma” value (QG group: oral QG 50 mg/kg) was “could be detected in rat plasma” and the CL (QG group: oral QG 50 mg/kg, rat plasma, mean ± SD, n = 5) was 71 ± 57 mL/min/kg. For the same molecule, the Plasma concentrations (Qr group (oral Qr 50 mg/kg), 5 min) was 0.3755 µg/mL and 1.9735 µg/mL and 1.3717 µg/mL and 1.2834 µg/mL, the Plasma concentrations (Qr group (oral Qr 50 mg/kg), 120 min) was 1.6399 µg/mL and 0.4649 µg/mL and 2.4126 µg/mL and 2.1713 µg/mL and 0.6055 µg/mL and the Plasma concentrations (Qr group (oral Qr 50 mg/kg), 180 min) was 1.1714 µg/mL and 0.4542 µg/mL and 1.7560 µg/mL and 4.1932 µg/mL and 1.1826 µg/mL. For the same molecule, the Plasma concentrations (Qr group (oral Qr 50 mg/kg), 240 min) was 1.0033 µg/mL and 1.3275 µg/mL and 1.0605 µg/mL and 1.9477 µg/mL and 0.8307 µg/mL, the Plasma concentrations (Qr group (oral Qr 50 mg/kg), 360 min) was 1.0844 µg/mL and 1.0457 µg/mL and 0.9781 µg/mL and 1.2903 µg/mL and 0.5532 µg/mL and the Plasma concentrations (Qr group (oral Qr 50 mg/kg), 480 min) was 0.9932 µg/mL and 0.4529 µg/mL and 0.7247 µg/mL and 0.7786 µg/mL and 0.5843 µg/mL. For the same molecule, the Plasma concentrations (Qr group (oral Qr 50 mg/kg), 1440 min) was 0.1552 μg/mL and 0.4031 μg/mL and 0.5308 μg/mL and 0.0000 μg/mL (2×), the “AUC(0-t)” value [3] was 1269.04 mg·min/L and 1058.23 mg·min/L and 1705.01 mg·min/L and 1261.98 mg·min/L and 455.81 mg·min/L and the CLz/F [3] was 0.037 L/min/kg and 0.034 L/min/kg (2×) and 0.019 L/min/kg and 0.093 L/min/kg. The Cmax [3] was 4415 ng/mL and 6941.3 ng/mL and 9165 ng/mL and 9211 ng/mL and 2540 ng/mL, the “MRT(0-t)” value [3] was 6.1781 h and 7.68988 h and 6.69422 h and 2.72245 h and 3.04182 h and the Tmax [3] was 30 min and 60 min (2×). The t1/2z [3] was 7.30138 h and 12.1634 h and 20.1775 h and 3.02307 h and 2.81598 h and the “Detection in rat plasma” value (Qr group: oral Qr 50 mg/kg) was “detected”.

From paper PMC6440464 (PeerJ, 2019)
